Tests used:
[1] = biological target: Prostaglandin G/H synthase 1 (Homo sapiens, UniProt P23219); experiment: In vitro inhibitory activity against sensitive U-937 microsomal prostaglandin G/H synthase 1
[2] = biological target: T1, Prostaglandin G/H synthase 2 (Homo sapiens, UniProt P35354); experiment: In vitro inhibitory activity against prostaglandin G/H synthase 2 stably transfected in Chinese hamster ovary (CHO) cells; format: cell-based
T1 sequence (P35354 whole entry): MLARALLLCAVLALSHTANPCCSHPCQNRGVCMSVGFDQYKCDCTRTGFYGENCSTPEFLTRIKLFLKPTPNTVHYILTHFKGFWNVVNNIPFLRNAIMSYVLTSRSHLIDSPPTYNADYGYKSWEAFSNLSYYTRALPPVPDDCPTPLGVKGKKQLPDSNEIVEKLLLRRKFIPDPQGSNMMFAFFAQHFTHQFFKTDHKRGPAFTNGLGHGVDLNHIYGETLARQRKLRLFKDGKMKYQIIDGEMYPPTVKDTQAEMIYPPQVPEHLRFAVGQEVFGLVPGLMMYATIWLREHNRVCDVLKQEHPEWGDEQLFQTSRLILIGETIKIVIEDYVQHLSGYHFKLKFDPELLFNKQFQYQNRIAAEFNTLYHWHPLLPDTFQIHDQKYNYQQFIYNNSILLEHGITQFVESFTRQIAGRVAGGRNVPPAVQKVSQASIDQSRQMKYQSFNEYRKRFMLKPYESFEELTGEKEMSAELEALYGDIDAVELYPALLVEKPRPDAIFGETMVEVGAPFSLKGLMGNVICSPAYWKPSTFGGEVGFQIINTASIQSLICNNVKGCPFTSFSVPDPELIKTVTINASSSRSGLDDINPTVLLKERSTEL

[3] = biological target: T1, Prostaglandin G/H synthase 2; experiment: In vitro inhibitory activity against prostaglandin G/H synthase 2 stably transfected in Human whole blood (HWB) cell; format: tissue-based
Rattus norvegicus [4] = experiment: Effective dose of the Compound was determined in vivo by using rat pyresis assay; format: functional
Rattus norvegicus [5] = experiment: Effective dose of the Compound was determined in vivo by using rat paw edema assay; format: functional
[6] = Cmax value was determined after peroral administration of 20 mg/kg in rat; format: ADME, organism-based; set-up: dose 20 mg/kg, route oral; conditions: in vivo, po
Rattus norvegicus [7] = experiment: Percent inhibition was determined in vivo by using rat paw edema assay at 10 mg/kg; format: functional

Prostaglandin G/H synthase 1, sequence (P23219 whole entry): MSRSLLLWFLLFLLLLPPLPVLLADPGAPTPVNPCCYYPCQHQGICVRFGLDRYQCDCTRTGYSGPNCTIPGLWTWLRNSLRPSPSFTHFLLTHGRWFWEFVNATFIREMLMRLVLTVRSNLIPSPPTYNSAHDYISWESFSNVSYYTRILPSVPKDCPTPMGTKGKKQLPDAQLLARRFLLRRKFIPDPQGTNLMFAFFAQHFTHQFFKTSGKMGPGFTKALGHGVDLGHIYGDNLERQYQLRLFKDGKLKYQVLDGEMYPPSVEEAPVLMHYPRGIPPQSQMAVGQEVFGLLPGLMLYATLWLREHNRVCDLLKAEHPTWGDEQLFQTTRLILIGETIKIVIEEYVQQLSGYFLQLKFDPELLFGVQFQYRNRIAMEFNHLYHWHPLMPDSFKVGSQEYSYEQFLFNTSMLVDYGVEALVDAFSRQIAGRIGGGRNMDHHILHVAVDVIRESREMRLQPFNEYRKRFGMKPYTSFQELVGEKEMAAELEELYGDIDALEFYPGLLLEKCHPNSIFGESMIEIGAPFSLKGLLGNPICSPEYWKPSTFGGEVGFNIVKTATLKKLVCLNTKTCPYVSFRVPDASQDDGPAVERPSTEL

SMILES	IC50 [1]	IC50 [2]	IC50 [3]	Cmax [6]	ED50 (Rattus norvegicus [4])	ED50 (Rattus norvegicus [5])	inhibition in vivo at 10 mg/kg (Rattus norvegicus [7])
CS(=O)(=O)c1ccc(-c2cnn(-c3ccccc3)c(=O)c2-c2ccccc2)cc1	> 10000 nM	–	–	–	–	–	–
CS(=O)(=O)c1ccc(-c2cnn(Cc3cccnc3)c(=O)c2-c2ccccc2)cc1	10000 nM	1300 nM	7100 nM	–	–	–	–
Cn1ncc(-c2ccc(S(C)(=O)=O)cc2)c(-c2ccccc2)c1=O	–	300 nM	–	–	–	–	–
CC(C)(C)n1ncc(-c2ccc(S(C)(=O)=O)cc2)c(-c2ccccc2)c1=O	> 10000 nM	> 5000 nM	> 33000 nM	–	–	–	–
CS(=O)(=O)c1ccc(-c2cnn(CCC3CC3)c(=O)c2-c2ccc(F)cc2)cc1	> 10000 nM	200 nM	2900 nM	–	–	–	–
CS(=O)(=O)c1ccc(-c2cnn(Cc3ccccc3)c(=O)c2Oc2ccc(Cl)cn2)cc1	10000 nM	–	–	–	–	–	–
CS(=O)(=O)c1ccc(-c2cnn(Cc3cccs3)c(=O)c2-c2ccc(F)cc2)cc1	1000 nM	–	–	–	–	–	–
Cc1ccc(-c2c(-c3ccc(S(C)(=O)=O)cc3)cnn(Cc3ccccc3)c2=O)cn1	> 10000 nM	–	–	4.2 µM	–	> 10 mg/kg	–
CS(=O)(=O)c1ccc(-c2cnn(Cc3ccccc3)c(=O)c2OCC2CC2)cc1	10000 nM	3 nM	360 nM	0.8 µM	–	> 10 mg/kg	–
CS(=O)(=O)c1ccc(-c2cnnc(O)c2-c2ccccc2)cc1	> 10000 nM	> 5000 nM	> 33000 nM	–	–	–	–
CC(C)=CCn1ncc(-c2ccc(S(C)(=O)=O)cc2)c(-c2ccc(F)cc2)c1=O	3000 nM	–	–	–	–	–	–
CC(C)Oc1c(-c2ccc(S(C)(=O)=O)cc2)cnn(Cc2ccccc2)c1=O	> 10000 nM	–	–	2.8 µM	< 0.3 mg/kg	< 0.3 mg/kg	–
Cc1ccc(-c2c(-c3ccc(S(C)(=O)=O)cc3)cnn(Cc3ccccc3)c2=O)cc1	> 10000 nM	20 nM	–	2.7 µM	> 10 mg/kg	2.2 mg/kg	–
CS(=O)(=O)c1ccc(-c2cnn(Cc3ccccc3)c(=O)c2Oc2ccc(F)cc2)cc1	1000 nM	–	–	–	–	> 10 mg/kg	–
CS(=O)(=O)c1ccc(-c2cnn(Cc3ccccc3)c(=O)c2Sc2ccccc2)cc1	10000 nM	370 nM	5900 nM	–	–	–	–
C[C@H]1C(Cn2ncc(-c3ccc(S(C)(=O)=O)cc3)c(-c3ccc(F)cc3)c2=O)[C@@H]1C (mixture of isomers)	3000 nM	50 nM	700 nM	–	–	–	–
CS(=O)(=O)c1ccc(-c2cnn(Cc3ccccc3)c(=O)c2-c2ccccc2)cc1	10000 nM	–	–	1 µM	–	–	–
CS(=O)(=O)c1ccc(-c2cnn(Cc3nccs3)c(=O)c2-c2ccc(F)cc2)cc1	10000 nM	600 nM	5900 nM	–	–	–	–

More lines, main results first:

IC50 [1]	IC50 [2]	IC50 [3]	Cmax [6]	SMILES	ED50 (Rattus norvegicus [4])	ED50 (Rattus norvegicus [5])	inhibition in vivo at 10 mg/kg (Rattus norvegicus [7])
3000 nM	60 nM	300 nM	16 µM	C[C@H]1C[C@@H]1Cn1ncc(-c2ccc(S(C)(=O)=O)cc2)c(-c2ccc(F)cc2)c1=O	1.1 mg/kg	0.7 mg/kg	–
3000 nM	200 nM	700 nM	–	CC1(Cn2ncc(-c3ccc(S(C)(=O)=O)cc3)c(-c3ccc(F)cc3)c2=O)CC1	–	–	–
3000 nM	30 nM	700 nM	–	CC1(C)CC1Cn1ncc(-c2ccc(S(C)(=O)=O)cc2)c(-c2ccc(F)cc2)c1=O (racemic)	–	–	–
> 10000 nM	–	–	8.5 µM	CS(=O)(=O)c1ccc(-c2cnn(CC3CC3)c(=O)c2-c2ccc(F)cc2)cc1	–	10 mg/kg	–
10000 nM	60 nM	1700 nM	4.8 µM	C[C@@H]1C[C@H]1Cn1ncc(-c2ccc(S(C)(=O)=O)cc2)c(-c2ccc(F)cc2)c1=O	–	–	40%
10000 nM	50 nM	2400 nM	–	C[C@H]1C[C@H]1Cn1ncc(-c2ccc(S(C)(=O)=O)cc2)c(-c2ccc(F)cc2)c1=O (racemic)	–	–	–
10000 nM	200 nM	700 nM	13 µM	CC(C1CC1)n1ncc(-c2ccc(S(C)(=O)=O)cc2)c(-c2ccc(F)cc2)c1=O (racemic)	> 10 mg/kg	1.8 mg/kg	–
1000 nM	–	–	–	CS(=O)(=O)c1ccc(-c2cnn(CC3CCCCC3)c(=O)c2-c2ccc(F)cc2)cc1	–	–	–
10000 nM	–	–	–	CS(=O)(=O)c1ccc(-c2cnn(C3CC3)c(=O)c2-c2ccc(F)cc2)cc1	–	–	–

Reference: ChEMBL document CHEMBL1136575, “Pyridazinones as selective cyclooxygenase-2 inhibitors” (Bioorg Med Chem Lett, 2003)
